Data reported in ChEMBL document CHEMBL1157539, “Thousands of chemical starting points for antimalarial lead identification” (Nature, 2010).

Test system: Plasmodium falciparum
Assay: GSK_TCMDC: Inhibition of Plasmodium falciparum 3D7 in whole erythrocytes, using parasite LDH activity as an index of growth.
Assay type: functional, organism-based

| Compound | XC50 (Plasmodium falciparum, 3D7) [µM] | XC50 [µM] |
| --- | --- | --- |
| CC(C)c1cc2c(ccc3nc(N)nc(N)c32)o1 | 0.0857 | – |
| N=C1N=C(N)NCN1OCc1ccc(Cl)c(Cl)c1 | 0.194 | – |
| CN1CCN(c2ccnc3ccc(NC(=O)Cc4ccc(Br)c5ccccc45)cc23)CC1 | 0.807 | – |
| Cn1cc(C(=O)Nc2cccc(-c3cccc(-c4nc5cc(F)ccc5[nH]4)c3)c2)n(C)c1=O | 0.388 | – |
| OC(COc1ccccc1-c1nc2ccccc2o1)CN1CCCN(CCc2ccccc2)CC1 (configuration not stated) | 0.758 | – |
| COc1ccc(CNC2CCN(C)CC2)cc1-c1ccc(S(=O)(=O)NCCc2ccccn2)s1 | 0.624 | – |
| Cc1cc(N[C@@H](C)C(=O)Nc2ccccc2)nc(NCCc2ccc(F)cc2)n1 | 1.11 | – |
| COc1c(C2CCN(CCCCNC(=O)c3cc(-c4ccc(Cl)cc4)oc3C)CC2)ccc2c1CCCC2 | 0.882 | – |
| CCNc1cc(C(=O)N[C@@H](Cc2ccccc2)[C@H](O)CNC2CCCCC2)cc(N2CCCCS2(=O)=O)c1 | 0.17 | – |
| CS(=O)(=O)CCNCc1cccc(-c2cc3c(Nc4ccc(OCc5ccccc5)cc4)ncnc3cn2)c1 | 0.734 | – |
| Cn1c(NC2CCN(CC3CCN(C(=O)/C=C/c4ccc(Cl)c(Cl)c4)CC3)CC2)nc2ccccc21 | 0.148 | – |
| Nc1nc(N)c2cc3ccc(OCc4ccccc4)cc3nc2n1 | 0.32 | – |
| O=C(/C=C/c1ccc(Cl)c(Cl)c1)NCCCCCN1CCCN(C(=O)Nc2cccc(F)c2)CC1 | 0.757 | – |
| Cc1ccccc1C1CCN(C2CCC(NC(=O)/C=C/c3cccc(F)c3)CC2)CC1 (configuration not stated) | 1.19 | – |
| CC(=O)N(Cc1nc(-c2cc(C(F)(F)F)cc(C(F)(F)F)c2)cs1)c1c(C)cccc1C | 0.107 | – |
| CCOc1cc(C(=O)Nc2ccc3nc(N(CC)CC)cc(C)c3c2)cc(OCC)c1OCC | 0.696 | – |
| COc1ccc2c(=NN=Cc3ccc(OC)c4ccccc34)cc(C)[nH]c2c1 | 0.599 | – |
| Cc1cc(NCCC(=O)Nc2ccccc2)nc(NCC2CCCCC2)n1 | 0.841 | – |
| CCC(=O)NC(c1ccco1)c1cc(Cl)c2cccnc2c1O (configuration not stated) | 0.875 | – |
| CC(C)COc1ccc(Cl)cc1Cc1ccc(-c2nc3ccc(F)cc3[nH]2)o1 | 0.854 | – |
| CC1(C)N=C(NC(=O)Nc2ccc([N+](=O)[O-])cc2)N=C(N)N1OCc1cccc2ccccc12 | 0.0595 | – |
| Cc1cccc(OC(C)C(=O)Nc2cc(C(F)(F)F)ccc2N2CCOCC2)c1 (configuration not stated) | 0.237 | – |

| Compound | XC50 (Plasmodium falciparum, 3D7) [µM] | XC50 [µM] |
| --- | --- | --- |
| CCCCCCNC(=O)C1Cc2c([nH]c3ccc(C)cc23)C2(CCN(Cc3ccccc3)CC2)N1 (configuration not stated) | 0.982 | – |
| Cc1cccc2nc(-c3ccc(-c4ccc(CNCc5ccc(CN)cc5)cc4)cc3)[nH]c12 | 0.721 | – |
| O=C(Nc1cccc(C(F)(F)F)c1)c1ccc(S(=O)(=O)NCC2CCN(CC3CCCCC3)CC2)cc1 | 0.32 | – |
| Cn1cncc1C(=O)Nc1cccc(-c2ccc(-c3nc4ccccc4[nH]3)cc2)c1 | 0.854 | – |
| CCOC(=O)c1ccc2[nH]c(-c3ccc(C(=O)NC4CCN(Cc5ccccc5)CC4)s3)nc2c1 | 0.745 | – |
| COc1ccc(-c2cc(Nc3nc(-c4cccc(Cl)c4)nc4ccccc34)ccn2)cc1 | 0.727 | – |
| COc1cc2nccc(Nc3ccc(OCc4ccc(NC(C)=O)cc4)cc3)c2cc1OC | 0.553 | – |
| COc1ccccc1N=C1SC(=Cc2cn(CC(=O)N3CCCc4ccccc43)c3ccccc23)C(=O)N1C1CCCCC1 | 0.0289 | – |
| CCCCc1ccc(-c2nc(NC(=O)Nc3[nH]c(-c4ccccc4)nc3C(=O)OCC)c(C(=O)OCC)[nH]2)cc1 | 0.752 | – |
| CCOC(=O)c1ccc(NC(=O)Nc2ccc(-c3cccc(-c4nc5ccccc5[nH]4)c3)cc2)cc1 | 0.145 | – |
| CCOc1ccccc1C(=O)Nc1cccc(-c2nc3ncccn3c2C)c1 | 0.846 | – |
| O=C(C=Cc1ccc(Cl)c(Cl)c1)NCCCCCN1CCC(CCCNC(=O)/C=C/c2ccccc2)CC1 | 0.592 | – |
| CC(=NNC(=N)N)C(=O)Nc1ccc(Cl)c(Cl)c1 | 0.166 | – |
| COc1ccc2nccc([C@@H](O)CN3CCC(NCc4cc5cc(OC(F)(F)F)ccc5[nH]4)CC3)c2c1 | 0.127 | – |
| COc1ccc(N2CCN(CCCCNC(=O)c3ccc(NC(=O)c4ccc(Cl)cc4)cc3)CC2)c(OC)c1 | 0.951 | – |
| CCN(CC)CCN1C(=O)c2oc3ccc(F)cc3c(=O)c2C1c1cccc(Cl)c1 (configuration not stated) | 0.531 | – |
| CCN1CCc2c1cc(C(=O)N[C@@H](Cc1ccccc1)[C@H](O)CNC(C)(C)c1cccc(C(F)(F)F)c1)cc2N1CCCCS1(=O)=O | 0.109 | – |
| CCCNCc1ccc(-c2ccc(CN(CCOC)C(=O)COc3ccccc3Cl)cc2)nc1 | 0.912 | – |
| CCOC(=O)N1CCN(CCCNc2c3ccccc3nc3ccccc23)CC1 | 1.01 | – |
| COc1ccc(-c2ccc(NC(=O)c3ccc(C#N)cc3)cc2)cc1CN1CCCN(C)CC1 | 0.152 | – |
| CC(=O)Nc1ccc(C2NC(=O)NC(c3ccccc3)=C2c2nc3ccccc3s2)cc1 (configuration not stated) | 1.11 | – |
| COc1cc(Cc2cnc(N)nc2N)cc(OCCCC(=O)O)c1OC | 1.18 | – |

| Compound | XC50 (Plasmodium falciparum, 3D7) [µM] | XC50 [µM] |
| --- | --- | --- |
| O=C(Nc1cccc(-c2nn3ccccc3c2-c2ccnc(Nc3ccc(NCCCN4CCOCC4)c(F)c3)n2)c1)c1c(F)cccc1F | 0.259 | – |
| Cc1cccc2nc(-c3ccc(-c4ccc(NC(=O)NCc5ccc(F)cc5)cc4)cc3)[nH]c12 | 1.33 | – |
| C=CCN1C(=O)C(C(C)=O)=C(O)C1c1ccccc1 (configuration not stated) | 0.0538 | – |
| Cc1ccc(NC(=O)c2ccc3ncccc3c2)cc1OC1CCN(Cc2ccsc2)C1 (configuration not stated) | 0.801 | – |
| C#CCOc1ccc(N2C(N)=NC(N)=NC2(C)C)cc1 | 0.0658 | – |
| Nc1nc(NCC2CCC(CNS(=O)(=O)c3cccc4ccccc34)CC2)nc2ccccc12 (configuration not stated) | 0.804 | – |
| CS(=O)(=O)CCNC(=O)c1ccc(-c2cc3c(Nc4ccc5c(cnn5Cc5ccccc5)c4)ncnc3cn2)o1 | 0.995 | – |
| Cc1nnsc1C(=O)Nc1cccc(-c2ccc(-c3nc4cccc(C)c4[nH]3)s2)c1 | 1.12 | – |
| Oc1ccc(Nc2ccnc3cc(Cl)ccc23)cc1 | 0.744 | – |
| CS(=O)(=O)CCNCc1cccc(-c2ccc3c(Nc4ccc(Oc5ccccc5)cc4)ccnc3c2)c1 | 0.691 | – |
| CC1(C)N=C(N)N=C(N)N1OCCc1ccc2ccccc2c1 | 0.0032 | – |
| CN(C)C(=O)C(CC(=O)NCc1ccccc1Cl)N(C)C.CN(C)C(=O)CC(C(=O)NCc1ccccc1Cl)N(C)C (configuration not stated) | 0.896 | – |
| COc1ccc(NC(=O)[C@H](Cc2ccccc2)Nc2cc(C)nc(NCCc3ccc(F)cc3)n2)cc1 | 1.12 | – |
| CC(=O)c1ccccc1C(=O)N1CCOc2ccc(C(O)C(c3ccccc3)c3ccccc3)cc2C1 (configuration not stated) | 0.905 | – |
| CCOc1cc2ccccc2cc1CNCCCCCCNCc1cc2ccccc2cc1OCC | 0.979 | – |
| COc1ccc(CN(C)CCCOc2ccc(NC(=O)c3cccc4c(=O)c5cccc(C)c5[nH]c34)cc2)cc1OC | 0.889 | – |
| CCN(CC)CCN(Cc1ccc(-c2ccc(C(F)(F)F)cc2)cc1)C(=O)Cn1c(CCc2c(F)cc(F)cc2F)nc(=O)c2ccccc21 | 1.04 | – |
| CC(O)C1CCCCN1C(=O)c1cccc(-c2ccc(-c3nc4cc(F)ccc4[nH]3)cc2)c1 (configuration not stated) | 0.742 | – |
| CC(C)NCc1cccc(-c2cccc(NC(=O)c3ccc(C#N)cc3)c2)c1 | 0.646 | – |
| CN1Cc2cc(NC(=O)/C=C/c3ccccc3Cl)ccc2C(C)(C)C1 | 0.641 | – |
| O=C(NCc1ccc(Cl)cc1)c1ccc(CN2CCCN(CC3CCCCC3)CC2)cc1 | 1.7 | – |
| CC[C@H](C)CNC(=O)c1cncc(-c2cccc(CNC3Cc4ccccc4C3)c2)c1 | 0.591 | – |

| Compound | XC50 (Plasmodium falciparum, 3D7) [µM] | XC50 [µM] |
| --- | --- | --- |
| O=C(CC(=O)C(F)(F)F)c1ccc2c(c1)OCO2 | 0.744 | – |
| CCCCCCc1cc(Oc2c(I)cc(C[C@H](N)C(=O)O)cc2I)ccc1O | 0.906 | – |
| O=c1c2ccc(Sc3ccccn3)cc2n(-c2ccccc2)c2cc(Sc3ccccn3)ccc12 | 0.203 | – |
| COc1ccc2nccc(N3CCC(CCNCc4ccc5c(n4)NC(=O)CO5)CC3)c2n1 | 0.998 | – |
| Cn1ccnc1Sc1ncccc1[N+](=O)[O-] | 0.968 | – |
| COc1ccccc1NC(=O)c1cc(C(=O)c2cc(Cl)ccc2O)cn(-c2ccccc2OC)c1=O | 0.943 | – |
| CCCNCc1ccc(-c2ccc(CN(C(=O)c3nn(-c4ccccc4)nc3C)C(C)CN(C)C)cc2)nc1 (configuration not stated) | 0.923 | – |
| CCn1c(-c2nonc2N)nc2c(-c3cccc(Cl)c3)ncc(OCCCNCCc3c[nH]cn3)c21 | 0.983 | – |
| Cn1c(=O)c(-c2c(Cl)cccc2Cl)cc2cnc(Nc3ccc(N4CCOCC4)cc3)nc21 | 0.161 | – |
| N=C(N)NC(=O)Nc1ccc([N+](=O)[O-])c(Cl)c1 | 0.88 | – |
| CN1CCN(c2cc(NC(=O)c3ccc(-c4ccc(C#N)cc4)cc3)ccc2Cl)CC1 | 0.464 | – |
| O=C(NCCc1ccc(Cl)c(Cl)c1)C1CCCN(C(=O)c2ccc(O)c(-c3ccc(Cl)c(Cl)c3)c2)C1 (configuration not stated) | 0.78 | – |
| CCCC[C@@H](C(=O)NCCc1ccc(Cl)cc1)N1C(=O)CCC1C(=O)Nc1ccc(Cl)c(Cl)c1 (some centres not stated) | 0.873 | – |
| CC(C)(C)c1cc(C(=O)N2CCC(c3ccccn3)CC2)n(Cc2ccccc2)n1 | 0.955 | – |
| COc1c(C2CCN(CCCCNC(=O)c3ccc(-c4ccc(Cl)cc4)c(OCC(N)=O)c3)CC2)ccc2c1CCCC2 | 1.01 | – |
| CC1=C(C(=O)NC2CCC(CN3CCC(c4c[nH]c5ccccc45)CC3)CC2)Cc2ccccc21 (configuration not stated) | 0.996 | 0.833 |
| N#Cc1c(N)n(CCc2ccc(F)cc2)c2nc3ccccc3nc12 | 0.973 | – |
| NC(=O)C1Cc2ccccc2CN1CC(=O)Nc1ccccc1Sc1ccccc1 (configuration not stated) | 0.0684 | – |
| CN1CCC(NCc2ccc(-c3cnc(NCc4ccccc4)nc3)cc2)CC1 | 0.827 | – |
| CSc1sc(NC(=O)Nc2cccc(C(F)(F)F)c2)cc1C#N | 0.912 | – |
